Measured values: the supplement of paper PMC10307832

Key:
Assay in all cases: relative viability (nuclei count vs DMSO), 5 days (fraction); higher = more cells survive
ALW-II-49-7 + Luminespib = compound: Cc1ccc(C(=O)Nc2cccc(C(F)(F)F)c2)cc1Nc1cncc(C(N)=O)c1 [ALW-II-49-7] + CCNC(=O)c1noc(-c2cc(C(C)C)c(O)cc2O)c1-c1ccc(CN2CCOCC2)cc1 [Luminespib] (partner 0.01 µM)
Method in brief: (§1)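 Dosing by pin tool came one day after lung cancer cell lines were seeded in 1536-well plates, using either one drug or a fixed anchor-drug dose plus five library-drug doses (not always all listed) in √10 steps. After 5 days, nuclei were counted on 4× images. Relative viability is treated-well nuclei count divided by vehicle-well nuclei count, and values are medians of duplicate plates.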

Dasatinib + Decitabine = compound: Cc1nc(Nc2ncc(C(=O)Nc3c(C)cccc3Cl)s2)cc(N2CCN(CCO)CC2)n1 [Dasatinib] + Nc1ncn([C@H]2C[C@H](O)[C@@H](CO)O2)c(=O)n1 [Decitabine] (partner 2 µM)
Method in brief: as §1

ALW-II-49-7 + Bortezomib = compound: Cc1ccc(C(=O)Nc2cccc(C(F)(F)F)c2)cc1Nc1cncc(C(N)=O)c1 [ALW-II-49-7] + CC(C)C[C@H](NC(=O)[C@H](Cc1ccccc1)NC(=O)c1cnccn1)B(O)O [Bortezomib] (partner 0.002 µM)
Method in brief: as §1

Dasatinib + Olaparib = compound: Cc1nc(Nc2ncc(C(=O)Nc3c(C)cccc3Cl)s2)cc(N2CCN(CCO)CC2)n1 [Dasatinib] + O=C(c1cc(Cc2n[nH]c(=O)c3ccccc23)ccc1F)N1CCN(C(=O)C2CC2)CC1 [Olaparib] (partner 8 µM)
Method in brief: as §1

Cell Line	relative viability (ALW-II-49-7 + Luminespib; first compound 0.08 µM)	relative viability (ALW-II-49-7 + Luminespib; first compound 0.253 µM)	relative viability (ALW-II-49-7 + Luminespib; first compound 0.8 µM)	relative viability (ALW-II-49-7 + Luminespib; first compound 8 µM)	relative viability (Dasatinib + Decitabine; first compound 0.005 µM)	relative viability (Dasatinib + Decitabine; first compound 0.01581 µM)	relative viability (Dasatinib + Decitabine; first compound 0.05 µM)	relative viability (Dasatinib + Decitabine; first compound 0.1581 µM)	relative viability (Dasatinib + Decitabine; first compound 0.5 µM)	relative viability (ALW-II-49-7 + Bortezomib; first compound 0.08 µM)	relative viability (ALW-II-49-7 + Bortezomib; first compound 0.253 µM)	relative viability (ALW-II-49-7 + Bortezomib; first compound 0.8 µM)	relative viability (ALW-II-49-7 + Bortezomib; first compound 2.53 µM)	relative viability (ALW-II-49-7 + Bortezomib; first compound 8 µM)	relative viability (Dasatinib + Olaparib; first compound 0.005 µM)	relative viability (Dasatinib + Olaparib; first compound 0.01581 µM)	relative viability (Dasatinib + Olaparib; first compound 0.05 µM)	relative viability (Dasatinib + Olaparib; first compound 0.1581 µM)	relative viability (Dasatinib + Olaparib; first compound 0.5 µM)	relative viability (ALW-II-49-7 + Luminespib; first compound 2.53 µM)
NCI-H23	0.188	0.22	0.228	0.191	0.273	0.293	0.286	0.27	0.236	1.12	0.807	1.03	1.12	1.02	0.359	0.301	0.307	0.297	0.282	–
NCI-H1355	0.722	0.628	0.658	0.708	0.355	0.319	0.354	0.343	0.272	0.983	1.26	1.23	1.2	1.08	0.747	0.541	0.73	0.582	0.442	0.562
COR-L23	0.651	0.465	0.521	0.808	0.428	0.42	0.386	0.298	0.307	1.13	0.784	0.95	0.866	1.11	0.338	0.294	0.325	0.208	0.211	0.774
NCI-H2023	0.524	0.754	0.919	0.476	0.262	0.226	0.216	0.214	0.209	1.05	0.889	1	0.942	0.666	0.43	0.456	0.377	0.378	0.379	0.682
A-427	0.728	0.736	0.875	0.769	0.616	0.513	0.543	0.491	0.493	1.1	0.95	0.967	1.02	1.05	0.704	0.646	0.637	0.574	0.563	–
NCI-H596	0.929	0.943	1.18	1.12	0.955	0.916	0.724	0.668	0.542	0.672	0.99	1.18	1	0.953	0.685	0.575	0.525	0.517	0.466	1.1
LU99A	0.253	0.212	0.194	0.288	0.827	0.819	0.833	0.655	0.46	1.29	1.17	1.05	1.07	1.27	0.283	0.259	0.265	0.188	0.166	0.217
NCI-H2009	1.04	1.02	1.04	0.728	0.403	0.384	0.314	0.216	0.122	1	1.03	0.96	0.783	0.512	0.715	0.731	0.772	0.556	0.127	0.845
